This is an account of results in patent US20220378763A1, “COMPOUND FOR TREATMENT OF ACUTE INFLAMMATION IN THE MYOCARDIUM” (CALPROTECT AB, priority 2019, published 2022).

Holding throughout (format): in vivo, mouse
The test system of assay [1] is C57BL/6 mice with MI induced by permanent coronary artery ligation. Description: MI by permanent coronary artery ligation, short-term (3 days) treatment: echocardiography, MRI, scar, infarct size, TUNEL. Particulars: for Size of the infarction, percentage of the AAR volume, vs PBS: TTC. An excerpt: All mouse studies were approved by the Animal Research Ethics Committee of Lund University. C57BL/6NRJ mice were purchased from Janvier Labs, C57BL/6-Tg(Nr4a1-EGFP/cre)820Khog/J (Nur77-EGFP) and B6;D2-Tg(Myh6*-mCherry)2Mik/J (α-MHC-mCherry) were purchased from the Jackson Laboratory. Nur77-EGFP mice express the fluorescent EGFP protein under the Nur77 promoter. α-MHC-mCherry mice express the red fluorescent Cherry protein under the mouse alpha myosin heavy-chain promoter in cardiomyocytes. We used 8-12 weeks old female mice in all experiments. MI was induced by left coronary artery ligation using a minimal thoracotomy model. Mice were initially anesthetized with 4% isoflurane and the surgical procedure was performed under 1.7% isoflurane. Following heart exposure outside of the thorax through a small thoracic incision, the left coronary artery was permanently ligated using silk 6.0 suture, the heart repositioned, and the thorax was closed with 6.0 prolene monofilament suture.
For short-term experiments, a daily dose of 30 mg/Kg ABR-238901 was diluted in PBS and administered by daily i.p. injections for the first 3 days post-MI, starting immediately after ischemia induction (days 0, 1 and 2) (FIG. 1A).
Ultrasound measurements were performed at day −1 (baseline), 7, and 21 to assess cardiac function using a Vevo 770 echocardiographic imaging system with a 707B probe (VisualSonics, Toronto, Canada). In selected experiments, additional assessment was performed on days 3 and 14. The mice were anesthetized using 1-3% isoflurane and hair was carefully removed using depilatory cream. To maintain body temperature, the mice were placed in supine position on a heated surface (37° C.). Two-dimensional M-mode images were recorded in the parasternal short-axis view at the mid-papillary level. Five complete cardiac cycles were traced to calculate fractional shortening, ejection fraction, left ventricular systolic volume, and left ventricular diastolic volume by using the VisualSonics software.
At 21 days after MI, the hearts were perfused with ice cold PBS and excised under ketamine/xylazine anesthesia. Subsequently the hearts were fixed in 4% (w/v) paraformaldehyde and embedded in paraffin. The hearts were sectioned transversely from the apex to the level of the suture, and 6 μm thick sections were collected at 390 μm intervals. The sections were mounted on glass slides and stained with Van Gieson or Masson trichrome stain for quantitative analysis of scar size. Alarmin S100A8/A9 was detected using mouse anti-S100A8/A9 IgG1 antibody (Abcam, ab 130234, 1:100 dilution, O/N 4° C.). Goat anti-mouse IgG1 HRP-conjugated secondary antibody (Abcam, ab 97240, 1 h RT) was used and the staining was developed with ImmPACT™ DAB (Vector, SK-4105) chromogen as substrate. The slides were subsequently scanned using an Aperio digital pathology slide scanner (Leica Biosystems), and images were captured with the ImageScope software (Leica Biosystems). Left ventricle area and the infarcted area were measured on each section by using the BioPix iQ 2.5.0 software (Biopix AB). The size of the post-MI myocardial scar was expressed as percentage of the left ventricle volume below the coronary ligature.
Magnetic resonance measurements were performed on a 9.4 T horizontal magnet (Agilent, Santa Clara, USA) equipped with Bruker BioSpec AVIII electronics operating with ParaVision 6.0.1 (Bruker, Ettlingen, Germany). The experiments were conducted under general anaesthesia using a mixture of isoflurane (2%) and 98% O2 via a nose cone. Rectal temperature, ECG signal, and breathing rate were monitored throughout the measurements (SA instruments, Stony Brook, USA). During the experiment, the mouse was positioned prone in an animal holder and kept warm to maintain constant body temperature at 36-37° C. ECG and respiration triggered FLASH sequence was used to acquire cinematographic MR image series of the beating heart. […]

Assay [2] relates to C57BL/6 mice with sepsis induced by bacterial lipopolysaccharide. Description: LPS-induced sepsis: mortality over 7 days. As to conditions: 30 mg/kg i.p. at 0 and 6 h after LPS; 7-day period. How it is done:
General animal care, induction of sepsis and treatments were performed as described under Example 7. We initially included a total of 10 mice per treatment group, pooled from two independent experiments. To assess mortality after induction of sepsis, the mice were monitored at least three times a day for 7 days. […] The final group size was n=9 mice in the ABR-238901-treated group, and n=10 in the PBS-treated group. The experimental layout is outlined in FIG. 14A. Mice showing clinical signs of terminal illness that fulfilled the pre-specified termination points specified in the ethical permit awarded by the Lund University Ethics Committee were euthanized. Weight loss more than 20% is not considered a clinical sign of terminal illness, but was defined by the Ethical Committee as an experiment termination criterion.

For assay [3] the test system is unchanged. The experiment in a line: LPS-induced sepsis: weight loss. How it is done: General animal care, induction of sepsis and treatments were performed as described under Example 7. We included 5 mice per treatment group. After induction of sepsis, the mice were monitored for 7 days (FIG. 15A). To evaluate bodyweight, mice were weighed daily at the same time points during the course of the experiment.

[4] abbreviates: 3 days treatment, MR, not statistically significant.

Consider `COc1ncc(S(=O)(=O)Nc2cncc(Cl)c2O)cc1Br` [ABR-238901, 5-bromo-N-(5-chloro-4-hydroxypyridin-3-yl)-6-methoxypyridine-3-sulfonamide], for which the “Left ventricular EF, average” value in assay [1] (30 mg/Kg i.p. at 0, 24, 48 h, echocardiography, day 21) amounted to 36%. For the same compound, in assay [1] (30 mg/Kg i.p. at 0, 24, 48 h, echocardiography, days 3, 7, 21), the “Left ventricular EF vs PBS-treated controls” value is given as “higher throughout the follow-up period”. Further, in assay [1] (3 days treatment, MR), the “Increase in cardiac output from day 3 to day 21” value is “approximately 30%”. For the same compound, the “Cardiac output (CO)” value in assay [1] (3 days treatment, MR, day 3) is listed as 8.1 mL/min; in assay [1] (3 days treatment, MR, day 21), 10.4 mL/min. Moreover, the “Left ventricular EF” value is reported as 29% in assay [1] (3 days treatment, MR, day 3); 25% in assay [1] (3 days treatment, MR, day 7); 26% in assay [1] (3 days treatment, MR, day 21). In assay [1] (setting [4]), the “EDV vs PBS-treated MI group” value is on record as “tendency towards lower”. In addition, the “ESV vs PBS-treated MI group” value in assay [1] (setting [4]) is recorded as “tendency towards lower”. Further, the “Size of the infarction, percentage of the AAR volume, vs PBS” value is “smaller” in assay [1] (3 days treatment, day 3 post-MI) and “smaller” in assay [1] (3 days treatment, day 7 post-MI). Also, the “Average myocardial scar size vs controls” value in assay [1] (3 days treatment, day 21, Van Gieson staining) is “tendency towards smaller”. Moreover, the “Percentage of apoptotic cells in the myocardium (TUNEL)” value in assay [1] (day 3 post-MI) is on record as “significantly reduced”. In assay [2], this compound yielded an Animal survival of 100%. For the same compound, the “Decrease in body weight” value was 5.2% in assay [3] (day 1), 11.7% in assay [3] (day 2), 8.8% in assay [3] (day 3) and 4% in assay [3] (day 4).
